System: T lymphocytes in peripheral blood mononuclear cells
Test: IFN-gamma ELISPOT of human T cells with IGF1R peptides
Format: cell-based
Details: for Immunogenicity Cancer: responders / cancer patients tested; for Immunogenicity Volunteer: responders / volunteer donors tested
Method: A scoring system based on internet available epitope prediction algorithms was developed to predict the peptides derived from IGF1R that have optimal binding affinity and promiscuity against multiple MHC class II molecules. […] After stimulating human T cells with the peptides, IFN-gamma secretion was determined via ELISPOT analysis. Five of the most immunogenic peptides were selected for in vivo evaluation in neu-transgenic mice to assess the potential of clinical efficacy.

Sequence | Immunogenicity Cancer | Immunogenicity Volunteer
ASNFVFARTMPAEGA [p 817-831] | 1/10 | 
DERQPYAHMNGGRKN [p 1341-1355] | 1/10 | 
DYRSYRFPKLTVITE [p 69-83] |  | 1/5
GMAYLNANKFVHRDL [p 1122-1136] | 1/10 | 
GVLVLRASFDERQPY [p 1332-1346] | 2/10 | 
IDIRNDYQQLKRLEN [p 37-5] | 1/10 | 
IRGWKLFYNYALVIF [p 106-120] | 3/10 | 2/5
LIIALPVAVLLIVGG [p 936-950] | 4/10 | 1/5
LVIMLYVFHRKRNNS [p 951-965] | 3/10 | 
SHALVSLSFLKNLRL [p 393-407] | 2/10 | 2/5
SKMIQMAGEIADGMA [p 1110-1124] | 1/10 | 
TQYAVYVKAVTLTMV [p 575-589] | 1/10 | 1/5
VIEGYLHILLISKAE [p 54-68] | 2/10 | 
WSFGVVLWEIATLAE [p 1196-1210] | 2/10 | 1/5
YSFYVLDNQNLQQLW [p 418-432] | 1/10 | 

Reference: US9060961B2, “Molecules and methods for treatment and detection of cancer” (UNIVERSITY OF WASHINGTON, priority 2006, dated 2015)
